Each block holds one compound with its values, some of them ahead of it.
Key:
[1] = Maximum or visual solubility of the active ingredient in fatty substances and solvents (HPLC-UV); assay type: physicochemical
Procedure: (§1) The solubility and the stability of the active ingredient were evaluated by liquid chromatography coupled to a UV detector (HPLC-UV).
The solubility of the active ingredient was evaluated by liquid chromatography coupled to a UV detector (HPLC-UV).

[2] = Stability of the active ingredient in fatty substances and solvents (HPLC-UV); assay type: physicochemical
Procedure: as §1

[3] = system: Whole human abdominal skin; assay: In vitro skin penetration of dispersed Compound A2 (Franz cells, LC/MS/MS); assay type: in vitro ADME; conditions: irrespective of the formulation tested; 24 h
Procedure: In this study, the formulations were applied for 24 hours to the skin surface. At the end of the application, Compound A2 is quantified in the various skin compartments: stratum corneum, epidermis, dermis, and receiving liquid according to a validated bioanalysis method performed by positive electrospray ionization tandem mass spectrometry, using a Xevo system (Waters). The quantification limit for Compound A2 is 2 ng/mL. The LC/MS/MS conditions developed made it possible to detect up to 0.1% of the dose applied in each compartment (dose not absorbed, stratum, epidermis, dermis, and receiving liquid).
The results presented in FIG. 5 show the amount penetrated as a percentage of the dose applied (% of the dose applied) according to the various skin compartments.

[4] = system: Whole human abdominal skin; assay: In vitro skin penetration kinetics of dispersed Trifarotene (Franz cells, LC/MS/MS); assay type: in vitro ADME; conditions: irrespective of the formulation tested; 24 h
Procedure: In this study, the formulations were applied for 24 hours to the skin surface. After the application, Trifarotene is quantified at several points in time (1 h, 3 h, 6 h, 8 h and 24 h) in the various skin compartments: stratum corneum, epidermis, dermis, and receiving liquid according to a validated bioanalysis method performed by positive electrospray ionization tandem mass spectrometry, using a Xevo system (Waters). The quantification limit for Trifarotene is 0.01 ng/mL. […] [table] The results presented in FIG. 1 show the amount penetrated as a percentage of the dose applied (% of the dose applied) according to the various skin compartments after 24 h of exposure. The total amount penetrated corresponds to the amount of active ingredient assayed in the various skin compartments (stratum corneum, epidermis, dermis) and the receiving liquid. FIGS. 3 and 4 present the areas under the curve (AUCs) calculated respectively after 8 hours, corresponding to the shortest exposure times, and after 24 hours, corresponding to the longest exposure times. The AUCs were calculated for each kinetics (n=6). They were then statistically compared by one-way ANOVA followed by Dunnett's test.

[5] = in Capric/caprylic acid triglycerides (Miglyol ® 812N)
[6] = in Diisopropyl adipate (Schercemol Dia Ester)
[7] = in Octyldodecanol (Eutanol ® G)
[8] = in PPG-15 stearyl ether (Arlamol PS11E-LQ)
[9] = in Propylene glycol dicaprylate/dicaprate (Myritol ® PC)

Maximum or visual* solubility (% w/w) (AT) ([1]; in Diethylene glycol monoethyl ether (Transcutol HP)): 13.9 % w/w
Maximum or visual* solubility (% w/w) (AT) ([1]; visual*, in Capric/caprylic acid triglycerides (Miglyol ® 812N)): <0.1* % w/w
Maximum or visual* solubility (% w/w) (AT) ([1]; visual*, in Diisopropyl adipate (Schercemol Dia Ester)): <1.0* % w/w
Maximum or visual* solubility (% w/w) (AT) ([1]; visual*, in Dimethyl capramide (Spectrasolv DMDA)): 20-30* % w/w
Maximum or visual* solubility (% w/w) (AT) ([1]; visual*, in PPG-15 stearyl ether (Arlamol PS11E-LQ)): <1.0* % w/w
Stability (3M) (AT/40° C.) ([2]; 3M, AT/40° C., in Diethylene glycol monoethyl ether (Transcutol HP), ** Appearance of coloring at AT and at 40° C.): Stable **
Compound: C[C@H](NC(=O)N1CCC(c2ccc(O)cc2O)CC1)c1ccccc1 [Compound A2, (S)-4-(2,4-dihydroxyphenyl)-N-(1-phenylethyl)piperidine-1-carboxamide]
skin distribution [3]: essentially located in the stratum corneum and the epidermis, and more moderately in the dermis

Maximum solubility (% w/w) (AT) ([1]; in Alkyl (C12-15) benzoate (Crodamol AB)): 0.026 % w/w
Maximum solubility (% w/w) (AT) [1, 5]: 0.019 % w/w
Maximum solubility (% w/w) (AT) [1, 6]: 0.297 % w/w
Maximum solubility (% w/w) (AT) ([1]; in Macrogol oleate (Labrafil ® M1944CS)): 0.156 % w/w
Maximum solubility (% w/w) (AT) ([1]; in Mineral oil): 0.0001 % w/w
Maximum solubility (% w/w) (AT) [1, 7]: 0.137 % w/w
Maximum solubility (% w/w) (AT) [1, 8]: 0.292 % w/w
Maximum solubility (% w/w) (AT) [1, 9]: 0.069 % w/w
Maximum solubility (% w/w) (AT) ([1]; in Propylene glycol monocaprylate (Capryol ® 90)): 0.802 % w/w
Maximum solubility (% w/w) (AT) ([1]; in Propylene glycol monolaurate (Lauroglycol ® FCC)): 0.296 % w/w
Maximum solubility (% w/w) (AT) ([1]; in Sweet almond oil): 0.011 % w/w
Stability ([2]; AT/40° C., in Capric/caprylic acid triglycerides (Miglyol ® 812N)): 6 months
Stability ([2]; AT/40° C., in Diisopropyl adipate (Schercemol Dia Ester)): 6 months
Stability ([2]; AT/40° C., in Macrogol oleate (Labrafil ® M1944CS)): 6 months
Stability ([2]; AT/40° C., in PPG-15 stearyl ether (Arlamol PS11E-LQ)): 6 months
Stability ([2]; AT/40° C., in Propylene glycol monocaprylate (Capryol ® 90)): 6 months
Stability ([2]; AT/40° C., in Propylene glycol monolaurate (Lauroglycol ® FCC)): 6 months
Stability ([2]; AT/40° C., in Sweet almond oil): 6 months
Stability [2, 7]: Unstable
Stability [2, 9]: Unstable
Compound: CC(C)(C)c1cc(-c2cc(-c3ccc(C(=O)O)cc3)ccc2OCCO)ccc1N1CCCC1 [Trifarotene]
skin distribution [4]: essentially located in the stratum corneum and the epidermis, and more moderately in the dermis

Maximum or visual* solubility (% w/w) (AT) ([1]; in 10/90% Dimethyl sulfoxide/C12-15 alkyl lactate): 0.12 % w/w
Maximum or visual* solubility (% w/w) (AT) ([1]; in 10/90% Dimethyl sulfoxide/Diisopropyl adipate): 0.38 % w/w
Maximum or visual* solubility (% w/w) (AT) ([1]; in 10/90% Dimethyl sulfoxide/PPG-15 stearyl ether): 0.07 % w/w
Maximum or visual* solubility (% w/w) (AT) ([1]; in 20/80% Dimethyl sulfoxide/C12-15 alkyl lactate): 0.74 % w/w
Maximum or visual* solubility (% w/w) (AT) ([1]; in 20/80% Dimethyl sulfoxide/Schercemol Dia Ester): 3.15 % w/w
Maximum or visual* solubility (% w/w) (AT) ([1]; in C12-15 alkyl lactate (Ceraphyl 41)): 0.04 % w/w
Maximum or visual* solubility (% w/w) (AT) [1, 5]: <detection limit
Maximum or visual* solubility (% w/w) (AT) [1, 6]: 0.02 % w/w
Maximum or visual* solubility (% w/w) (AT) [1, 8]: 0.01 % w/w
Maximum or visual* solubility (% w/w) (AT) ([1]; visual*, in Dimethyl sulfoxide (Procipient DMSO)): >20%* % w/w
Compound: Cc1cc(COc2ccc(S(=O)(=O)NC[C@@H](C(=O)NO)N3CCN(S(=O)(=O)C(C)C)CC3)cc2)c2ccccc2n1 [Compound A3, (S)—N-hydroxy-3-[4-(2-methyl-quinolin-4-ylmethoxy)-benzenesulfonylamino]-2-[4-(propane-2-sulfonyl)-piperazin-1-yl]-propionamide]

Reference: patent publication US11197831B2, “Compositions comprising at least one dispersed active principle and lipid microcapsules” (GALDERMA RESEARCH & DEVELOPMENT, priority 2015, dated 2021)
